Results as given in patent EP2845588A1, “PIN1 inhibitors for use in the prevention and/or treatment of theileriosis, and related applications” (Centre National de la Recherche Scientifique (CNRS), priority 2013, dated 2015).

What was measured:
[1] = system: TpPIN1 (TP01_0114) transcripts; assay: Quantitative PCR of TpPIN transcripts in T.parva-infected cells; type: cell-based
Description: (§1) Total cellular RNAs were extracted using an RNeasy Plus Mini Kit (Qiagen, Hilden, Germany) and parasite RNAs were extracted using the classical Trizol Protocol. cDNA synthesis was performed with the Reverse Transcriptase Superscript III (Invitrogen, CA, USA).
(§2) Quantitative PCR amplification was performed in the ABI 7500 machine (Applied Biosystems, CA, USA) using the Sybr Green reagent (Applied Biosystems, CA, USA) using the primers listed in Table 5 below. The detection of a single product was verified by dissociation curve analysis. Relative quantities of mRNA were analyzed using the delta Ct method. The βactin qPCR was used for normalization. Table 5: qPCR primers

[2] = biological target: T1, TaPIN Mutant A53P (Theileria annulata, UniProt Q4UG71, A53P); assay: CyclinD1-Luciferase reporter assay, TaPIN Mutant A53P in TBL3 cells; type: cell-based, T. annulata; conditions: parasite-infected cells (TBL3)
T1 construct: expressed in transfected cells; host or cells: TBL3 (T. annulata-infected bovine B cells), electroporated with pRev-HA-FLAG-TaPIN A53P-RIL2
Source text: After sequencing the TaPIN gene expressed in Buparvaquone-resistant infected cells, the Ala53Pro point mutation identified in said gene was introduced into the pRev-HA-FLAG-TaPIN WT-RIL2 plasmid using the set of primers of sequence SEQ ID NO:41 and SEQ ID NO:42 following a 3-step PCR protocol.
(§3) Bovine cells were transfected with the 5xHRE (Staller et al., 2003) or CyclinD1- (Wulf et al., 2001) Luciferase reporters, using electroporation (Neon kit, Invitrogen, CA, USA). Mouse cells were transfected using Lipofectamine 2000 (Invitrogen, CA, USA). Transfections efficiencies were normalized to Renilla activity by co-transfection of a pRL-TK Renilla reporter plasmid (Promega, Ref.: E6241). Luciferase assays were performed 36h post-transfection using the Dual-Luciferase Reporter Assay System (Promega, Ref: E1980) in a microplate luminometer. Relative luminescence was represented as the ratio Firefly/Renilla luminescence, compared with the corresponding empty vector control. The 5xHRE promoter-Luciferase construct was obtained from P Staller (Biotech Research & Innovation Centre, Copenhagen, […]).

[3] = system: PKM2, HIF1α, Hexokinase II and PDK1 in TBL3 cells; assay: Immunoblot of PKM2, HIF1α, Hexokinase II and PDK1 in TBL3 cells; type: cell-based, bovine
Description: Total proteins were extracted with Laemmli lysis, sonicated: 15 secs ON / 30 secs OFF for 5 min, resolved on 10.5% acrylamide/bis-acrylamide SDS-PAGE gels and transferred to nitrocellulose membranes (Thermo Fisher Scientific, MA, USA) in transfer buffer. Protein transfer was assessed by Ponceau-red staining. Membranes were blocked in Tris-buffered saline pH7.4 containing 0.1% Tween-20 and 5% milk for 1 h at room temperature. Incubations with primary antibodies were carried out at 4°C overnight using antibody dilutions as manufacturer recommendations in Trisbuffered saline pH7.4, 0.05% Tween-20 and 5% milk. Following 1 h incubation with an anti-rabbit or anti-mouse peroxidase-conjugated antibody (Sigma, St Louis, MO, USA) at room temperature, proteins were detected by chemiluminescence (Thermo Fisher Scientific, MA, USA) following the manufacturer's instructions. The following antibodies were used: Rabbit anti-TaPIN (Home-made antibody, Proteogenix, Peptide used: […]-Cys), rabbit anti-PIN1 (Cell Signaling, Ref: 3722), rabbit anti-TaActin (kindly provided by Jake Baum, Australia), rabbit anti-c-Jun (Santa Cruz, CA, USA Ref: sc1694), mouse anti-αTubulin (Sigma, Ref: T9026), , rabbit anti-HIF1α (Abcam, Cambridge, UK; Ref: ab75918), rabbit anti-Hexokinase II (Cell Signaling, Ref: C64G5), rabbit anti-PDK1 (Cell signaling, Ref: C47H1), mouse anti-HA (Roche, Ref: 11583816001), rabbit anti-FBW7 (Bethyl Laboratories, Ref: A301-721A), rabbit anti-Histone H3 (Abcam, Ref: ab1791), rabbit anti-PKM2 (Abcam, Ref: ab38237), mouse anti-Actin (Sigma, Ref: A1978) and monoclonal anti-FLAG M2-Peroxidase (Sigma, Ref: A8592). c-Jun, FBW7 or PKM2/Actin ratios were calculated after Western blot signal quantification with the Plot Lanes Analysis tool of Image J software (National Institutes of Health, Bethesda, MD, USA).

[4] = system: TpPIN protein; assay: Immunoblot of TpPIN protein in nuclear and cytoplasmic fractions of T. parva-infected cells; type: cell-based; conditions: nuclear and cytoplasmic fractions of T. parva-infected TpM409 B cells
Description: Cells were lysed in the following buffer: 5mM Tris HCL pH7.5, 40mM KCL, 2mM MgCL2, 0.5mM EDTA, 0.05mM Spermidine and Spermine, 0.1% NP-40, H2O. Lysates were incubated for 5min on ice and centrifuged for 10min at 5000rpm. The supernatant constitutes the Cytoplasmic fraction and the pellet constitutes the nuclear fraction.
Total proteins were extracted with Laemmli lysis, sonicated: 15 secs ON / 30 secs OFF for 5 min, resolved on 10.5% acrylamide/bis-acrylamide SDS-PAGE gels and transferred to nitrocellulose membranes (Thermo Fisher Scientific, MA, USA) in transfer buffer. Protein transfer was assessed by Ponceau-red staining. Membranes were blocked in Tris-buffered saline pH7.4 containing 0.1% Tween-20 and 5% milk for 1 h at room temperature. Incubations with primary antibodies were carried out at 4°C overnight using antibody dilutions as manufacturer recommendations in Trisbuffered saline pH7.4, 0.05% Tween-20 and 5% milk. Following 1 h incubation with an anti-rabbit or anti-mouse peroxidase-conjugated antibody (Sigma, St Louis, MO, USA) at room temperature, proteins were detected by chemiluminescence (Thermo Fisher Scientific, MA, USA) following the manufacturer's instructions. […]

[5] = system: TBL3 cells transiently expressing TaPIN Mutant A53P; assay: Proliferation of TBL3 cells transiently expressing TaPIN Mutant A53P; type: cell-based, bovine; conditions: transient expression of TaPIN Mutant A53P
Description: All infected bovine cell lines used in this study were previously described: TBL3 cells were derived from in vitro infection of the spontaneous bovine-B lymphosarcoma cell line, BL3, with Hissar stock of T.annulata. The TpMD409 lymphocyte cell line are infected with T. parva. The culture conditions of these cell lines were previously described by Moreau et al., 1999. Cells were cultured in RPMI 1640 (Gibco-BRL, Paisley, UK), supplemented with 10% heat-inactivated Fetal calf serum, 4mM L-Glutamine, 25mM HEPES, 10µM β-mercaptoethanol and 100µg/ml penicillin/streptomycin in a humidified 5%CO2 atmosphere at 37°C. HepG2, NIH/3T3 and MEF cells lines were cultured in DMEM (Gibco-BRL, Paisley, UK), supplemented with 10% heat-inactivated Fetal calf serum, 4mM L-Glutamine, 25 mM HEPES, 10µM β-mercaptoethanol and 100µg/ml penicillin/streptomycin in a humidified 5% CO2 atmosphere at 37°C. Cell numbers, as judged by Trypan Blue exclusion test, were determined by counting cells using a Countess automated cell counter (Invitrogen, CA, USA). The anti-parasite drug Buparvaquone (BW720c) was used at 200ng/ml for 72 hours. BW720c has no effect on growth of uninfected cells. […]

[6] = system: host bovine bPIN1; assay: Quantitative PCR of host bPIN1 transcripts; type: cell-based
Description: as §1, §2

[7] = biological target: T2, TaPIN WT (Theileria annulata, UniProt Q4UG71); assay: CyclinD1-Luciferase reporter assay, TaPIN WT in TBL3 cells; type: cell-based, T. annulata; conditions: parasite-infected cells (TBL3)
T2 construct: expressed in transfected cells; host or cells: TBL3 (T. annulata-infected bovine B cells), electroporated with the pREV-HA-FLAG-RIL2 TaPIN plasmid
Description: as §3

## CC(C)(C)C1CCC(CC2=C(O)C(=O)c3ccccc3C2=O)CC1 (stereo not shown) [Buparvaquone, 2-((4-tert-butylcyclohexyl)methyl)-3-hydroxy-1,4-naphthoquinone]
[1]
  TpPIN1 transcripts: reduced
[2]
  CyclinD1 promoter activation induced by the TaPIN Mutant A53P: no significant effect
[3]
  HIF1α protein expression: reduced
  PKM2 protein expression: reduced
[3]; HIF1α target gene
  Hexokinase II: reduced
  PDK1: reduced
[4]
  TpPIN protein: decreased
[5]
  drug effect on TBL3 cell proliferation on overexpression of the TaPIN Mutant A53P: rescued
[6]
  level of RNA transcripts encoding the host bovine bPIN1 protein: not affected
[7]
  CyclinD1 promoter activation by TaPIN WT: reversed
